Measurements: paper PMC8804275 (IBRO Neuroscience Reports, 2022)

Experiments:
hCB1R [1] = target: T1, hCB1R (Homo sapiens, UniProt P21554); test: HitHunter cAMP assay, inhibition of forskolin-stimulated cAMP; format: cell-based; conditions: 10 µM FSK, 90 min, 37 °C; agonism mode without CP55,940; allosteric ago-PAM
hCB1R [2] = target: T1, hCB1R; test: PathHunter βarrestin2 recruitment assay; format: cell-based; conditions: 90 min, 37 °C; agonism mode without CP55,940; allosteric ago-PAM

T1 sequence (P21554 whole entry): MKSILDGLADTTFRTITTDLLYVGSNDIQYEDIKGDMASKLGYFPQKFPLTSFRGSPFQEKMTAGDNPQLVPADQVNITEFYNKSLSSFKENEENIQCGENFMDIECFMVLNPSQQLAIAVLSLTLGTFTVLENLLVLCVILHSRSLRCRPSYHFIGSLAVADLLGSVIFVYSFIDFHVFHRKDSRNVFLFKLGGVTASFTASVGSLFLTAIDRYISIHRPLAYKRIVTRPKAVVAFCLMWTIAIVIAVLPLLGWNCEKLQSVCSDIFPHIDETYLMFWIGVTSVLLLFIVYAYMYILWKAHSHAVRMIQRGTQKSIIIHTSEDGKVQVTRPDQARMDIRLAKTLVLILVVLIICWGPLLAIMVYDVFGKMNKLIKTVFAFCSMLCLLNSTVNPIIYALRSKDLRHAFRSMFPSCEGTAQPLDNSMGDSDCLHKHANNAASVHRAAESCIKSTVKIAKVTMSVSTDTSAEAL

O=[N+]([O-])CC(c1ccccc1F)c1c(-c2cccc(F)c2)[nH]c2c(F)cccc12 (stereo not shown) [GAT593]
EC50 (hCB1R [1]): 45 nM
EC50 (hCB1R [2]): > 10000 nM

GAT591
EC50 (hCB1R [1]): 4.1 nM
EC50 (hCB1R [2]): 1300 nM
